From publication PMC8287944, “5-Fluorouracil blocks quorum-sensing of biofilm-embedded methicillin-resistant Staphylococcus aureus in mice” (Nucleic Acids Research, 2021)
pIC50, pKi: −log10 of the molar value. Like-named read-outs stand apart in the source and are kept apart here. Bridge positions count the residues as written; N and C are the ends. Square brackets hold non-standard residues; d marks the D form. Peptide text beside a SMILES is read from it. I, II: the chains in the order shown. * marks the point of attachment. Quinoxaline2carbonyl = O=C(c1cnc2ccccc2n1)*; NMeV = CN[CH](C(=O)O)C(C)C; NMeC = CN[CH](CS)C(=O)O

Tests used:
[1] = test system: AI-2 production by HEK-293AI2 cells expressing MTAN and LuxS; assay: HEK-293AI2 / V. harveyi (MM32) AI-2 detection platform (AI-2 production by engineered human cells); format: cell-based, human cells; MTAN and LuxS derived from E. coli; settings: for pIC50: HEK-293AI2 cells exposed 24 h, AI-2 in supernatant read by V. harveyi MM32 bioluminescence
Method: LuxS (MF688636) and MTAN (MF688635) transgenes derived from E. coli were codon-optimized for stable expression in mammalian cells. For the generation of double stable HEK-293-derived cell line HEK-293AI2 transgenic for simultaneous constitutive PhEFIα-driven MTAN and PhCMV-driven LuxS-eYFP expression, 250,000 cells were first transfected with 2000 ng of pFS168 (PhEFIα-MTAN-pA) and selected in culture medium containing 20 μg/ml blasticidin (cat. no. ant-bl-1; InvivoGen, San Diego, CA, USA) for two weeks. […] After 17 days of selection in medium containing 200 μg/ml (w/v) zeocin (cat. no. ant-zn-1; Invivogen, San Diego, CA, USA) and 20 μg/ml blasticidin, resistant monoclonal cells (HEK-293sFS26cx) were obtained by limiting dilution cloning and screened for AI-2 activity in their supernatants. […] The cell line was regularly tested for the absence of mycoplasma.
20 μl of HEK-293AI2 cells (10^4 cells per well) were resuspended in 20 μl Dulbecco's modified Eagle's medium (DMEM; Thermo Fisher, Basel, Switzerland, low glucose, without phenol red, cat. no. 11880–028) supplemented with 4 mM L-glutamine (Thermo Fisher, Basel, Switzerland, cat. no. 25030-024), 30 μg/ml kanamycin and 1% FCS and seeded into a poly-L-lysine-coated Black Greiner clear-bottom 384-well plate (cat. no. 3845; Corning, New York, USA) using a Multidrop Combi Reagent Dispenser (cat. no. 5840300; Thermo Fisher, Basel, Switzerland). Cells were incubated for 20 h and then 20 nL of individual compounds (stock solution in 5 mM in DMSO) or controls (stock solutions of novobiocin, 10 mM in DMSO; staurosporin, 20 mM in DMSO) were transferred with Echo 550 liquid handler (Labcyte, San Jose, CA, USA) into the plate.
Compound-treated cells were cultivated for 24 hours and the cell culture supernatants (10 μl) were transferred to dry black polystyrene 384-well plates (Corning, New York, USA, cat. no. 3571). The AI-2 activity was quantified by adding 40 μl per 384-well of V. harveyi MM32 AI-2 reporter strain, diluted 1:500 in AB-Medium from a stationary overnight culture grown in Luria Marine (LM)-medium containing 20 g of NaCl, 10 g of Bacto Tryptone (Difco Laboratories), and 5 g of yeast extract (BBL) ([25]). Plates were sealed with BREATHseal™ (cat. no. 7.676 050; Greiner Bio-One, Frickenhausen, Germany) and incubated for 4 h at 30°C and 200 rpm on a Multitron Pro shaker (Infors, Bottmingen, Switzerland). Bioluminescence was measured on an Envision 2104 Multilabel plate reader (Perkin Elmer, Waltham, USA) with 1 s integration time. […] The initial hit inclusion criteria were a toxicity score of less than 50% and an AI-2 activity reduction below the average of all compound activity three times the standard deviation (-49.39% of activity).
(§1) Figure 2. Cell-based primary screen for AI-2 biosynthesis inhibitors. (A) Detailed assay protocol of the primary screen using engineered mammalian cells to identify inhibitors of quorum sensing. […] Aliquots of 10 μl of culture supernatants were transferred to black-bottomed assay plates and mixed with 40 μl of V. harveyi MM32 (AI-2 biosensor). AI-2-induced bioluminescence was measured 4 h later and normalized against the controls. In a secondary screen, the dose-response relationships of hit compounds are analyzed. To simultaneously assess effects on cell viability, compound-treated cells were supplemented with PrestoBlue and incubated for 1 h prior to resorufin fluorescence quantification. (B) Z’-evaluation of the AI-2 inhibitor assay.

[2] = test system: HEK-293AI2 cells; format: cell-based, human
Method: To monitor viable cells with active metabolism, we employed a fast resazurin assay. […] To calculate the relative cell viability, the fluorescence of DMSO-treated cells was set to 100%.
as §1, with “assay. […] Bioactivity and viability are calculated as percentages, based on the positive control value (taken as 100%) and negative control value (taken as 0%). […] Data points in (C) represent means of biological duplicates.” for “assay.”

[3] = test system: V. harveyi (BB170); assay: V. harveyi BB170 growth (OD600 after 24 h); format: cell-based, Vibrio harveyi; parameters: TC50 (decrease of V. harveyi growth): unit not given beside the values; settings: V. harveyi BB170, OD600 after 24 h
Method: The test strain V. harveyi BB170 was grown overnight in Luria Marine (LM)-medium ([25]). The culture was 1:500 diluted in AB-medium (0.3 M NaCl, 10 mM potassium phosphate, 1 mM L-arginine, […], 1% glycerol) the next day, and then challenged with various chemical compounds. After 5 h of shaking at 200 rpm at 30°C, the bioluminescence of BB170 was quantified on a GENios Pro plate reader (Tecan, Männedorf, Switzerland).
Figure 3. Bioactivity of hit candidates against Vibrio harveyi. Effect on bacterial growth. V. harveyi (BB170) was grown in the presence of individual compounds (A–H) for 5 h and the bioluminescence (green circles) was quantified. After a total of 24 h, bacterial growth (+) was evaluated by measuring the optical density (OD600). The gray translucent background in (C) represents the narrow range within which the compound reduces bioluminescence without affecting growth.

[4] = molecular target: MTAN; settings: cited from earlier work; for pKi: read-out: Ki (reported, in vitro)

Compound | pIC50 [1] | Viability of Ctrl (%) ([2]; human, 5 µM) | pIC50 ([1]; Homo sapiens, 24 h) | other results
O=CN(O)C[C@@H](CC1CCC1)C(=O)N1C[C@H](F)C[C@H]1C(=O)Nc1cccnn1 [SCHEMBL12230407] | 6.20 | – | – | –
CO[C@H]1/C=C/O[C@@]2(C)Oc3c(C)c(O)c4c(c3C2=O)C2=NC3(CCN(CC(C)C)CC3)NC2=C(NC(=O)/C(C)=C\C=C\[C@H](C)[C@H](O)[C@@H](C)[C@@H](O)[C@@H](C)[C@H](OC(C)=O)[C@@H]1C)C4=O [Rifabutin] | – | –5.07% | 5.66 | –
CC(=O)NC[C@H]1CN(c2ccc(N3CCOCC3)c(F)c2)C(=O)O1 [Linezolid] | – | 0.38% | 5.38 | –
CO/N=C(\C(=O)N[C@@H]1C(=O)N2C(C(=O)O)=C(CSc3nc(=O)c(=O)[nH]n3C)CS[C@H]12)c1csc(N)n1 [Ceftriaxone] | – | –4.78% | 5.46 | –
CCCC[C@H](CN(O)C=O)C(=O)N1CCC[C@H]1C(=O)Nc1cc(CC)ccn1 [SCHEMBL14510040] | 5.96 | – | – | –
O=CN(O)C[C@@H](CC1CCCC1)C(=O)N1C[C@H](F)C[C@H]1C(=O)Nc1cccnn1 [SCHEMBL12230409] | 6.19 | – | – | –
Levomycin | 6.43 | – | – | –
CC1NC(=O)C(NC(=O)c2cnc3ccccc3n2)COC(=O)C(C(C)C)N(C)C(=O)C2CSSCC(C(=O)N(C)C(C(C)C)C(=O)OCC(NC(=O)c3cnc4ccccc4n3)C(=O)NC(C)C(=O)N2C)N(C)C1=O (centres unmarked) [Triostin A] (I: Quinoxaline2carbonyl-SA[NMeC][NMeV] / II: Quinoxaline2carbonyl-SA[NMeC][NMeV]; ester I:1-II:C, I:C-II:1; disulfide I:3-II:3; configuration not given here) | 5.67 | – | – | –
C/C=C\C=C\[C@@H]1O[C@](O)([C@H](CC)C(=O)NC/C=C/C=C(\C)[C@@H](OC)[C@H](C)[C@@H]2O[C@H](/C=C/C=C/C=C(\C)C(=O)c3c(O)cc[nH]c3=O)[C@H](O)[C@@H]2O)[C@H](O)[C@H](O)C1(C)C [Mocimycin] | 5.86 | – | – | –
COc1cc(C)c(Cc2cnc(N)nc2N)cc1OC [Ormetoprim] | – | – | 5.44 | –
CO[C@H]1/C=C/O[C@@]2(C)Oc3c(C)c(O)c4c(O)c(c(/C=N/N5CCN(C6CCCC6)CC5)c(O)c4c3C2=O)NC(=O)/C(C)=C\C=C\[C@H](C)[C@H](O)[C@@H](C)[C@@H](O)[C@@H](C)[C@H](OC(C)=O)[C@@H]1C [Rifapentine] | – | –0.98% | 5.60 | –
CCCCC[C@H](CC(=O)NO)C(=O)N[C@H](C(=O)N1CCC[C@H]1CO)C(C)C [Actinonin] | – | –11.93% | 6.00 | –
CC[C@H]1OC(=O)[C@H](C)[C@@H](O[C@H]2C[C@@](C)(OC)[C@@H](O)[C@H](C)O2)[C@H](C)[C@@H](O[C@@H]2O[C@H](C)C[C@H](N(C)C)[C@H]2O)[C@](C)(O)C[C@@H](C)C(=O)[C@H](C)[C@@H](O)[C@H]1C [Erythromycin B] | 5.85 | – | – | Viability of Ctrl (%) [2]: 4.99%
CC[C@H]1OC(=O)[C@H](C)[C@@H](O[C@H]2C[C@@](C)(OC)[C@@H](O)[C@H](C)O2)[C@H](C)[C@@H](O[C@@H]2O[C@H](C)C[C@H](N(C)C)[C@H]2O)[C@](C)(O)C[C@@H](C)C(=O)[C@H](C)[C@@H](O)[C@]1(C)O.O=C(O)[C@H](O)[C@H](O)[C@@H](O)[C@H](O)[C@H](O)CO [Erythrohycin Gluceptate] | 5.88 | – | – | –
CO[C@@H]1[C@@H](OC(N)=O)[C@@H](O)[C@H](Oc2ccc3c(O)c(NC(=O)c4ccc(O)c(CC=C(C)C)c4)c(=O)oc3c2C)OC1(C)C [novobiocin] | – | – | – | Bioluminescence of V. harveyi (MM32) ([1]; assay validation, active control novobiocin 10 μM): completely shut down the bioluminescence
O=CN(O)C[C@@H](CC1CCCC1)C(=O)N1C[C@H](F)C[C@H]1C(=O)Nc1cnccn1 [SCHEMBL12230405] | 6.82 | – | – | –
C[C@@H]1C/C=C2\SC[C@@H](NC(=O)c3coc(n3)C[C@H](O)C[C@H](O)/C=C/C=C/CNC2=O)C(=O)O1 [Griseoviridin] | 5.34 | – | – | –
O=c1[nH]c(=O)n([C@H]2C[C@H](O)[C@@H](CO)O2)cc1F [Floxuridine] | – | –22.28% | 6.11 | –
CNC1=NC(=O)[C@H]([C@@H](C)c2c[nH]c3ccccc23)O1 [CHEMBL283366] | 6.74 | – | – | –
Nc1nc(Cl)nc2c1ncn2[C@@H]1O[C@H](CO)[C@@H](O)[C@@H]1F [Clofarabine] | – | 15.42% | 6.80 | TC50 (decrease of V. harveyi growth) [3]: 4.4 × 10^−7
NC(=O)c1ncn([C@@H]2O[C@H](CO)[C@@H](O)[C@H]2O)n1 [Ribavirin] | – | – | 6.72 | –
Nc1ncnc2c([C@@H]3O[C@H](CO)[C@@H](O)[C@H]3O)[nH]nc12 [Formycin] | – | – | 5.68 | pKi ([4]; competitive MTAN inhibition): 5.00; pIC50 ([4]; competitive MTAN inhibition, read-out: Reported IC50 (in vitro)): 4.24
C[C@H]1O[C@@H](n2cc(F)c(=O)[nH]c2=O)[C@H](O)[C@@H]1O [Doxifluridine] | – | –0.0725% | 6.62 | –
CSC[C@H]1CN(Cc2c[nH]c3c(N)ncnc23)C[C@@H]1O [MT-DADMe-ImmA] | 6.77 | – | – | pKi ([4]; MTAN inhibition): 11.70
Erythromycin | 5.71 | – | – | –
